# Data from ChEMBL document CHEMBL3046900, “Synthesis and Fungitoxic Activity of N-Cinnamoyl--Amino Acid Esters” (2000).
# Key:
# Type in all cases: functional
# Athelia rolfsii [1] = assay: Fungitoxic activity against Athelia rolfsii assessed as mycelial growth inhibition at 10 ppm after 3 days; conditions: Agroathelia rolfsii, 72 h; read-out: GI
# Pythium [2] = assay: Fungitoxic activity against Pythium sp. assessed as mycelial growth inhibition at 10 ppm after 3 days; conditions: 72 h, read-out: GI
# Pythium [3] = assay: Fungitoxic activity against Pythium sp. assessed as mycelial growth inhibition at 100 ppm after 3 days; conditions: 72 h, read-out: GI
# Athelia rolfsii [4] = assay: Fungitoxic activity against Athelia rolfsii assessed as mycelial growth inhibition at 100 ppm after 3 days; conditions: Agroathelia rolfsii, 72 h; read-out: GI
structure (smiles),measurement,setting,value
COC(=O)[C@@H](NC(=O)/C=C/c1ccc(C(C)C)cc1)C(C)C,inhibition of growth at 10 ppm,Athelia rolfsii [1],23%
same,inhibition of growth at 10 ppm,Pythium [2],14%
same,inhibition of growth at 100 ppm,Pythium [3],74%
same,inhibition of growth at 100 ppm,Athelia rolfsii [4],63%
CC(C)OP(=O)(OC(C)C)SCc1ccccc1 [IPROBENFOS],inhibition of growth at 10 ppm,Athelia rolfsii [1],69%
same,inhibition of growth at 10 ppm,Pythium [2],42%
same,inhibition of growth at 100 ppm,Pythium [3],89%
same,inhibition of growth at 100 ppm,Athelia rolfsii [4],100%
